Format in all cases: in vivo
In test [1] the test system is AMARE: redroot pigwseed (Amaranthus retroflexus). The experiment in a line: Post-emergent Test I herbicidal activity. Particulars: post-emergence, read-out: Visual Growth Reduction (%), AMARE. The protocol: (§1) Post-emergent Test I Seeds test species were obtained from commercial suppliers and planted into a 13 cm diameter-round pot containing soil-less media mix (metro-mix 360®, Sun Gro Horticulture). Postemergence treatments were planted 8-12 days prior to application and cultured in a greenhouse equipped with supplemental light sources to provide a 16 h photoperiod at 24-29° C. All pots were surface irrigated.
(§2) A weighted amount, determined by the highest rate to be tested, of each compound was dissolved in 1.3 mL acetone-DMSO (97:3, v/v) and diluted with 4.1 mL water-isopropanol-crop oil concentrate (78:20:2, v/v/v) containing 0.02% Triton X-155 to obtain concentrated stock solutions. Additional application rates were obtained by serial dilution of the high rate solution into a solution containing appropriate volume of 97:3 v/v mixture of acetone and DMSO and appropriate volume of an aqueous mixture of water, isopropyl alcohol, crop oil concentrate (78:20:2, v/v/v) containing 0.02% Triton X-155.
(§3) Formulated compounds were applied using a DeVilbiss® compressed air sprayer at 2-4 psi. Following treatment, pots were returned to the greenhouse for the duration of the experiment. All pots were sub-irrigated as need to provide optimum growing conditions. All pots were fertilized one time per week by subirrigating with Peters Peat-Lite Special® fertilizer (20-10-20).
(§4) […] All evaluations were made visually on a scale of 0 to 100 where 0 represents no activity and 100 represents complete plant death. Visual assessments of plant injury were made based on growth reduction, discoloration, leaf deformity and necrosis.

In test [2] the test system is AVEFA: wild oats (Avena fatua). Briefly: Post-emergent Test I herbicidal activity. The note with it: post-emergence, 336 h, read-out: Visual Growth Reduction (%) 14 Days After Application, AVEFA. The protocol:
as §1, §2, §3, §4

Test [3] concerns ECHCG: barnyardgrass (Echinochloa crus-galli). The experiment in a line: Post-emergent Test I herbicidal activity. The note with it: post-emergence, 336 h, read-out: Visual Growth Reduction (%) 14 Days After Application, ECHCG. How it is done: as §1, §2, §3, §4
Test [4] has as its system HELAN: sunflower (Helianthus annuus). Briefly: Post-emergent Test I herbicidal activity. Particulars: post-emergence, 336 h, read-out: Visual Growth Reduction (%) 14 Days After Application, HELAN. The protocol:
as §1, §2, §3, §4

For test [5], the system named is IPOHE: ivyleaf morningglory (Ipomoea hederecea). The experiment in a line: Post-emergent Test I herbicidal activity. Particulars: post-emergence, 336 h, read-out: Visual Growth Reduction (%) 14 Days After Application, IPOHE. How it is done:
as §1, §2, §3, §4

In test [6] the test system is SETFA: giant foxtail (Setaria faberi). Briefly: Post-emergent Test I herbicidal activity. Particulars: post-emergence, 336 h, read-out: Visual Growth Reduction (%) 14 Days After Application, SETFA. How it is done: as §1, §2, §3, §4
For test [7], the system named is test plant species in Direct Seeded Rice. The experiment in a line: Postemergence herbicidal activity in direct seeded rice (Table 13). Particulars: for pest or weed control at 35 g/ha / pest or weed control at 70 g/ha: post-emergence, 504 h; for pest or weed control at 35 g/ha: 35 g ai/ha; for pest or weed control at 70 g/ha: 70 g ai/ha. In outline:
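Visual injury scores (0 no injury to 100 complete kill) taken 20-22 days after treatment were converted by probit analysis into GR20–GR90 doses. Treatment was an overhead track spray at 187 L/ha onto second-to-third true leaf plants, using acetone/DMSO (final 16.2%/0.5%) with Agri-dex crop oil; solvent blank served as control.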

Where [8] appears, read: BRAPP: broadleaf signalgrass, Brachiaria platyphylla, probit analysis.
Setting [9] is: CYPSS: sedge (Cyperus difformis, esculentus, iria), probit analysis.
[10] abbreviates: ECHSS: barnyardgrass (Echinochloa crus-galli), junglerice (Echinochloa colonum), probit analysis.
Setting [11] is: LEFSS: sprangletop (Leptochloa chinensis, Leptochloa dubia), probit analysis.
Where [12] appears, read: SCPJU: Japanese bulrush, Scirpus juncoides, probit analysis.
The mark [13] stands for this setting: SEBEX: hemp sesbania, Sesbania exaltata, probit analysis.
The mark [14] stands for this setting: BRAPP: broadleaf signalgrass, Brachiaria platyphylla, read-out: Visual Growth Reduction (%) 21 Days After Application BRAPP.
Setting [15] is: CYPSS: sedge (Cyperus difformis, esculentus, iria), read-out: Visual Growth Reduction (%) 21 Days After Application CYPSS.
Where [16] appears, read: ECHSS: barnyardgrass (Echinochloa crus-galli), junglerice (Echinochloa colonum), read-out: Visual Growth Reduction (%) 21 Days After Application ECHSS.
Where [17] appears, read: LEFSS: sprangletop (Leptochloa chinensis, Leptochloa dubia), read-out: Visual Growth Reduction (%) 21 Days After Application LEFSS.
[18] abbreviates: ORYSS: Oryza sativa, read-out: Visual Growth Reduction (%) 21 Days After Application ORYSS.
Setting [19] is: SCPJU: Japanese bulrush, Scirpus juncoides, read-out: Visual Growth Reduction (%) 21 Days After Application SCPJU.
[20] abbreviates: SEBEX: hemp sesbania, Sesbania exaltata, read-out: Visual Growth Reduction (%) 21 Days After Application SEBEX.

Where two headings read alike, the source gives them in different places. A value given as a limit tells only on which side of the number the result lay.

Turning to `COC(=O)c1nc(-c2ccc(C#N)c(F)c2)c(F)c(N)c1Cl` [Compound 135, methyl 4-amino-3-chloro-6-(4-cyano-3-fluorophenyl)-5-fluoropicolinate], the pest or weed control at 4040 g/ha fell in the range of 95 to 100% in test [1] (4.04 kg ai/ha); 60 to 74% in test [2] (4.04 kg ai/ha); 95 to 100% in test [3] (4.04 kg ai/ha); 95 to 100% in test [4] (4.04 kg ai/ha); 85 to 94% in test [5] (4.04 kg ai/ha); 75 to 84% in test [6] (4.04 kg ai/ha). Moreover, the “GR50 BRAPP” value in test [7] (setting [8]) was 4 g ai/ha. The “GR80 BRAPP” value in test [7] (setting [8]) came out at 11 g ai/ha. In addition, the “GR50 CYPSS” value in test [7] (setting [9]) is on record as 5 g ai/ha. In test [7] (setting [9]), the “GR80 CYPSS” value is 49 g ai/ha. The “GR50 ECHSS” value in test [7] (setting [10]) was determined as 17 g ai/ha. Besides, the “GR80 ECHSS” value in test [7] (setting [10]) is 70 g ai/ha. Moreover, in test [7] (setting [11]), the “GR50 LEFSS” value came out at 57 g ai/ha. For the same molecule, the “GR80 LEFSS” value in test [7] (setting [11]) came out at 114 g ai/ha. In test [7] (ORYSS: Oryza sativa (crop), probit analysis), the “GR20 ORYSS” value is over 70 g ai/ha. Further, in test [7] (setting [12]), the “GR50 SCPJU” value is 2 g ai/ha. Moreover, the “GR80 SCPJU” value in test [7] (setting [12]) was 5 g ai/ha. Moreover, in test [7] (setting [13]), the “GR50 SEBEX” value worked out at 1 g ai/ha. Also, the “GR80 SEBEX” value in test [7] (setting [13]) is reported as 1 g ai/ha. For the same molecule, the pest or weed control at 35 g/ha in test [7] (setting [14]) lay within 85 to 94%; in test [7] (setting [15]), 75 to 84%; in test [7] (setting [16]), 75 to 84%; in test [7] (setting [17]), 0 to 29%; in test [7] (setting [18]), 0 to 29%; in test [7] (setting [19]) it was 85 to 94%. Also, the pest or weed control at 35 g/ha in test [7] (setting [20]) lay in the range of 95 to 100%. Further, the pest or weed control at 70 g/ha lay within 85 to 94% in test [7] (setting [14]); 85 to 94% in test [7] (setting [15]); 75 to 84% in test [7] (setting [16]); 60 to 74% in test [7] (setting [17]); 0 to 29% in test [7] (setting [18]); 95 to 100% in test [7] (setting [19]). Besides, the pest or weed control at 70 g/ha in test [7] (setting [20]) lay within 95 to 100%.
`COC(=O)c1nc(-c2ccc(Br)cc2)c(F)c(N)c1Cl` [Compound 138, Methyl 4-amino-6-(4-bromophenyl)-3-chloro-5-fluoropicolinate]: the pest or weed control at 4000 g/ha was 95 to 100% in test [1] (4 kg ai/ha); 75 to 84% in test [2] (4 kg ai/ha); 95 to 100% in test [3] (4 kg ai/ha); 95 to 100% in test [4] (4 kg ai/ha); 95 to 100% in test [5] (4 kg ai/ha); 95 to 100% in test [6] (4 kg ai/ha).

The values above are taken from patent US9113629B2, “4-amino-6-(4-substituted-phenyl)-picolinates and 6-amino-2-(4-substituted-phenyl)-pyrimidine-4-carboxylates and their use as herbicides” (DOW AGROSCIENCES LLC, priority 2013, dated 2015).
